Laboratory results from PubChem BioAssay (NCI).
Several values for one entry are separate records, joined by “and”; a condition that tells them apart may be missing. Identical values can stand only once.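 Five compound concentrations were applied to cells in 96-well plates for 48 hours; endpoints were derived by simple linear interpolation of the resulting dose-response curve. At the GI50, growth is halved. TGI marks complete inhibition of growth.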

How the values were obtained:
Test in all cases: NCI-60 cell line screen, 48 h
[1] = system: HOP-62 NSCLC
[2] = system: OVCAR-8 ovarian
[3] = system: A549 NSCLC
[4] = system: SR leukemia
[5] = system: HCC-2998 colon
[6] = system: ACHN renal
[7] = system: HCT-15 colon
[8] = system: U251 CNS
[9] = system: NCI-H23 lung
[10] = system: UACC-257 melanoma

`CCN1C(=O)N(CC)C2C1NN=c1s/c(=C\c3ccc(OC)cc3)c(=O)n12` (configuration not stated) was tested, and the GI50 [1] was 0.381 µM, the TGI [1] was > 59.4 µM and the GI50 [2] was 0.369 µM. For the same compound, the GI50 [3] was 0.247 µM, the TGI [3] was > 100 µM and the GI50 [4] was 0.0444 µM. The GI50 [5] was 0.357 µM, the TGI [5] was > 100 µM and the GI50 [6] was 0.165 µM. For the same compound, the TGI [6] was > 100 µM, the GI50 [7] was 0.104 µM and the TGI [7] was > 100 µM. For the same compound, the GI50 [8] was 0.244 µM, the TGI [8] was > 100 µM and the GI50 [9] was 0.494 µM. For the same compound, the TGI [9] was > 100 µM, the GI50 [10] was > 100 µM and the TGI [10] was > 100 µM.
`Cc1cc2c(cc1Cl)SC(C(=O)c1ccc(Cl)c(Cl)c1)NS2(=O)=O` (configuration not stated) was tested, and the GI50 [1] was 39.3 µM, the TGI [1] was > 100 µM and the GI50 [2] was 44.5 µM. The TGI [2] was > 100 µM, the GI50 [3] was 45.2 µM and the TGI [3] was > 100 µM. For the same compound, the GI50 [4] was 31.4 µM, the TGI [4] was 81.8 µM and the GI50 [5] was 19.8 µM. For the same compound, the TGI [5] was 35.1 µM, the GI50 [6] was 29.8 µM and the TGI [6] was 85.6 µM. It also gave a GI50 [7] of 28.7 µM, a TGI [7] of 76.1 µM and a GI50 [8] of 34.4 µM. The TGI [8] was > 100 µM, the GI50 [9] was 34.1 µM and the TGI [9] was 89.5 µM. For the same compound, the GI50 [10] was 67.2 µM and the TGI [10] was > 100 µM.
With `N#Cc1ccc(/C=C/C(=O)c2ccccc2)cc1` the GI50 [1] was 22 µM and 18.4 µM, the TGI [1] was > 54.9 µM and 33.8 µM and the GI50 [2] was 9.07 µM and 11.2 µM. The TGI [2] was 22.2 µM and 27.5 µM, the GI50 [3] was 14.8 µM and 15.4 µM and the TGI [3] was 27.9 µM and 31.8 µM. The GI50 [4] was 1.88 µM and 1.52 µM, the TGI [4] was 6.11 µM and the GI50 [5] was 5.82 µM and 5.13 µM. For the same compound, the TGI [5] was 10.7 µM and 10.3 µM, the GI50 [6] was 12.3 µM and 16.2 µM and the TGI [6] was 24.8 µM and 29.8 µM. The GI50 [7] was 7.13 µM and 3.28 µM, the TGI [7] was 18.7 µM and 13.5 µM and the GI50 [8] was 2.95 µM and 3.76 µM. For the same compound, the TGI [8] was 9.52 µM and 11.8 µM, the GI50 [9] was 10.8 µM and 15.4 µM and the TGI [9] was 24.3 µM and 33.2 µM. The GI50 [10] was 13.6 µM and 15.6 µM and the TGI [10] was 26.4 µM and 29.5 µM.
For `O=C1c2ccccc2C(=O)c2c1ccc1c2N=C(c2ccc(Br)cc2)CC(c2cccc3ccccc23)N1` (configuration not stated), the TGI [1] was > 100 µM, the TGI [2] was > 100 µM and the TGI [3] was > 100 µM. For the same compound, the TGI [4] was > 100 µM, the TGI [5] was > 100 µM and the TGI [6] was > 100 µM. For the same compound, the TGI [7] was > 100 µM, the TGI [8] was > 100 µM and the TGI [9] was > 100 µM. For the same compound, the TGI [10] was > 100 µM.
In the case of `CCc1ccc([O-])c(C=NCCCN(C)CCCN=Cc2cc(C)ccc2[O-])c1.[Co+3].[N-]=[N+]=[N-]`, the GI50 [1] is reported as 10.5 µg/mL and 12 µg/mL, the TGI [1] is reported as 50 µg/mL and 34.5 µg/mL and the GI50 [2] is reported as 31.9 µg/mL and 49.1 µg/mL. For the same compound, the TGI [2] was 50 µg/mL and > 150 µg/mL, the GI50 [3] was 50 µg/mL and 106 µg/mL and the TGI [3] was 50 µg/mL and > 150 µg/mL. The GI50 [4] was 36.4 µg/mL, the TGI [4] was 50 µg/mL and the GI50 [5] was 50 µg/mL and 123 µg/mL. The TGI [5] was 50 µg/mL and > 150 µg/mL, the GI50 [6] was 50 µg/mL and the TGI [6] was 50 µg/mL. For the same compound, the GI50 [7] was 29.5 µg/mL and 35.9 µg/mL, the TGI [7] was 50 µg/mL and > 150 µg/mL and the GI50 [8] was 20.1 µg/mL and 33 µg/mL. The TGI [8] was 50 µg/mL and 123 µg/mL, the GI50 [9] was 50 µg/mL and 33.8 µg/mL and the TGI [9] was 50 µg/mL and 129 µg/mL. The GI50 [10] was 50 µg/mL and > 150 µg/mL and the TGI [10] was 50 µg/mL and > 150 µg/mL.
Work on `CC/C(=N/N=C(N)N)c1ccc(NC(=O)Nc2ccc(/C(CC)=N/N=C(N)N)cc2)cc1` yielded a GI50 [1] of 10.7 µM, a TGI [1] of 42.6 µM and a GI50 [2] of 5.95 µM. For the same compound, the TGI [2] was > 100 µM, the GI50 [3] was 5.1 µM and the TGI [3] was 22.4 µM. The GI50 [4] was 2.44 µM, the TGI [4] was 14.9 µM and the GI50 [5] was 7.56 µM. It also gave a TGI [5] of 36.3 µM, a GI50 [6] of 5.78 µM and a TGI [6] of 24.5 µM. It also gave a GI50 [7] of 11.9 µM, a TGI [7] of 33.2 µM and a GI50 [8] of 2.64 µM. The TGI [8] was 12.2 µM, the GI50 [9] was 11.5 µM and the TGI [9] was 50.8 µM. For the same compound, the GI50 [10] was 13.8 µM and the TGI [10] was 42 µM.
`CC1(C)CC(N2CCN(C3CC(C)(C)NC(C)(C)C3)CC2)CC(C)(C)N1` was tested, and the TGI [1] was > 100 µM, the TGI [2] was > 100 µM and the TGI [3] was > 100 µM. The TGI [4] was > 100 µM, the TGI [5] was > 100 µM and the TGI [6] was > 100 µM. For the same compound, the TGI [7] was > 100 µM, the TGI [8] was > 100 µM and the TGI [9] was > 100 µM. The TGI [10] was > 100 µM.
Work on `COc1cc(Cn2c(SCC(=O)Nc3ccc(Cl)cc3)nc3ccccc3c2=O)cc(OC)c1OC` yielded a GI50 [1] of 3.1 µM, a TGI [1] of 14.5 µM and a GI50 [2] of 4.82 µM. It also gave a TGI [2] of 16.1 µM, a GI50 [3] of 4.66 µM and a TGI [3] of 21.1 µM. The GI50 [4] was 18.5 µM, the TGI [4] was > 100 µM and the GI50 [5] was 26.6 µM. The TGI [5] was > 100 µM, the GI50 [6] was 3.15 µM and the TGI [6] was 11.8 µM. The GI50 [7] was 17 µM, the TGI [7] was > 100 µM and the GI50 [8] was 3.14 µM. For the same compound, the TGI [8] was 11.1 µM, the GI50 [9] was 16.5 µM and the TGI [9] was 72.6 µM. It also gave a GI50 [10] of 6.04 µM and a TGI [10] of 28 µM.
Compound `Cc1cn2c(/C=C3/C(=O)Nc4ccc(Cl)cc43)c(C)nc2s1` has a GI50 [1] of 0.214 µM, a TGI [1] of 18.3 µM and a GI50 [2] of 2.75 µM. The TGI [2] was 32.7 µM, the GI50 [3] was 1.05 µM and the TGI [3] was > 49.1 µM. For the same compound, the TGI [4] was > 100 µM, the GI50 [5] was < 0.024 µM and the TGI [5] was 1.04 µM. For the same compound, the GI50 [6] was 0.185 µM, the TGI [6] was 48.4 µM and the GI50 [7] was < 0.0403 µM. The TGI [7] was > 92.8 µM, the GI50 [8] was < 0.0235 µM and the TGI [8] was 28.7 µM. The GI50 [9] was 0.0454 µM, the TGI [9] was 0.37 µM and the GI50 [10] was 12.9 µM. The TGI [10] was > 100 µM.
`COc1ccc(-c2nc3sccn3c2-c2ccnc(NCCCNS(=O)(=O)c3ccc(F)cc3)n2)cc1` was tested, and the GI50 [1] was 4.15 µM, the TGI [1] was 23.7 µM and the GI50 [2] was 1.57 µM. The TGI [2] was > 100 µM, the GI50 [3] was 2.94 µM and the TGI [3] was > 100 µM. The GI50 [4] was 3.17 µM, the TGI [4] was > 100 µM and the GI50 [5] was 5.11 µM. The TGI [5] was 57.2 µM, the GI50 [6] was 1.99 µM and the TGI [6] was 7.73 µM. The GI50 [7] was 2.4 µM, the TGI [7] was 10.6 µM and the GI50 [8] was 3.7 µM. For the same compound, the TGI [8] was > 100 µM, the GI50 [9] was 2.11 µM and the TGI [9] was 5.5 µM. The GI50 [10] was 2.85 µM and the TGI [10] was > 100 µM.
`CNc1ncc2cc(-c3cc(NC(=O)NCCC(C)(C)C)c(F)cc3C)c(C)nc2n1` was tested, and the GI50 [1] was 0.195 µM and 0.298 µM, the TGI [1] was 12.7 µM and > 10 µM and the GI50 [2] was 0.512 µM and 0.515 µM. The TGI [2] was > 100 µM, the GI50 [3] was 0.754 µM and 0.598 µM and the TGI [3] was > 100 µM. The GI50 [4] was 0.811 µM and 3.13 µM, the TGI [4] was > 75.2 µM and the GI50 [5] was 0.283 µM and 0.207 µM. For the same compound, the TGI [5] was > 77.2 µM, the GI50 [6] was 0.198 µM and 0.262 µM and the TGI [6] was > 24.6 µM. For the same compound, the GI50 [7] was 0.407 µM and 0.429 µM, the TGI [7] was > 64.8 µM and the GI50 [8] was 0.572 µM and 0.474 µM. For the same compound, the TGI [8] was 31.6 µM and > 10 µM, the GI50 [9] was 0.147 µM and 0.186 µM and the TGI [9] was > 42.1 µM. For the same compound, the GI50 [10] was 0.0139 µM and the TGI [10] was 0.0555 µM.
In the case of `O=C1C(Br)=CC2(C=C1Br)CCNc1c(O)c3c4c(c12)=NCCC=4C=N3`, the TGI [1] is reported as 5.34 µM, the TGI [2] is reported as 0.511 µM and the TGI [3] is reported as 3.09 µM. The TGI [4] was 0.117 µM, the TGI [5] was 1.21 µM and the TGI [6] was 0.307 µM. For the same compound, the TGI [7] was 0.197 µM, the TGI [8] was 1.07 µM and the TGI [9] was 0.287 µM. For the same compound, the TGI [10] was 0.25 µM.
For `Cc1cc(C#Cc2ccccc2)ccc1-n1c(/C=C/c2cc(O)ccc2O)nc2ccccc2c1=O`, the GI50 [1] was 1.71 µM, the TGI [1] was 3.79 µM and the GI50 [2] was 1.94 µM. The TGI [2] was 5.4 µM, the GI50 [3] was 1.28 µM and the TGI [3] was 2.68 µM. For the same compound, the GI50 [4] was 1.1 µM, the TGI [4] was 2.87 µM and the GI50 [5] was 1.36 µM. The TGI [5] was 2.64 µM, the GI50 [6] was 1.44 µM and the TGI [6] was 2.75 µM. The GI50 [7] was 1.03 µM, the TGI [7] was 2.21 µM and the GI50 [8] was 1.45 µM. For the same compound, the TGI [8] was 2.77 µM, the GI50 [9] was 1.48 µM and the TGI [9] was 3.12 µM. It also gave a GI50 [10] of 1.56 µM and a TGI [10] of 2.94 µM.
